{
  "source": "ChEMBL document CHEMBL1201862",
  "about": "“PubChem BioAssay data set” (2004)",
  "key": {"[1]": {"biological_target": "T1, Neuropeptide Y receptor type 2 (Homo sapiens, UniProt P49146)", "T1 sequence (P49146 whole entry)": "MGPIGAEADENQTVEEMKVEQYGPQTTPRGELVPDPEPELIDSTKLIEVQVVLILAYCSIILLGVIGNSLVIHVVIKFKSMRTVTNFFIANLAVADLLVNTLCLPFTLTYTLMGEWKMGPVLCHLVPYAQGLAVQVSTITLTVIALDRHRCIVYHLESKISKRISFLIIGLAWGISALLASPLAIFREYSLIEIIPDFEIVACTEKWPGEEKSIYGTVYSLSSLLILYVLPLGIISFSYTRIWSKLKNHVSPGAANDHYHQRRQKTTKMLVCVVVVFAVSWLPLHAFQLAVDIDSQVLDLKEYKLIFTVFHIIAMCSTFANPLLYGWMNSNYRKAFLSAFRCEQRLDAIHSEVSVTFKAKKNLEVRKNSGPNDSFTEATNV", "experiment": "Fluorescence-based cell-based high-throughput dose response assay for agonists of NPY-Y2. [Related pubchem assays: 1703 (Screening assay (CNGC inhibitors).), 1359 (Screening assay (NPY-Y2 potentiators or agonists).), 1304 (Screening assay (NPY-Y1 potentiators or agonists).), 1710 (Screening assay (NPY-Y2 agonists).), 1791 (Summary AID.)]", "type": "functional"}, "Fatty acid synthase [2]": {"biological_target": "T2, Fatty acid synthase (Homo sapiens, UniProt P49327)", "T2 sequence (P49327 whole entry)": "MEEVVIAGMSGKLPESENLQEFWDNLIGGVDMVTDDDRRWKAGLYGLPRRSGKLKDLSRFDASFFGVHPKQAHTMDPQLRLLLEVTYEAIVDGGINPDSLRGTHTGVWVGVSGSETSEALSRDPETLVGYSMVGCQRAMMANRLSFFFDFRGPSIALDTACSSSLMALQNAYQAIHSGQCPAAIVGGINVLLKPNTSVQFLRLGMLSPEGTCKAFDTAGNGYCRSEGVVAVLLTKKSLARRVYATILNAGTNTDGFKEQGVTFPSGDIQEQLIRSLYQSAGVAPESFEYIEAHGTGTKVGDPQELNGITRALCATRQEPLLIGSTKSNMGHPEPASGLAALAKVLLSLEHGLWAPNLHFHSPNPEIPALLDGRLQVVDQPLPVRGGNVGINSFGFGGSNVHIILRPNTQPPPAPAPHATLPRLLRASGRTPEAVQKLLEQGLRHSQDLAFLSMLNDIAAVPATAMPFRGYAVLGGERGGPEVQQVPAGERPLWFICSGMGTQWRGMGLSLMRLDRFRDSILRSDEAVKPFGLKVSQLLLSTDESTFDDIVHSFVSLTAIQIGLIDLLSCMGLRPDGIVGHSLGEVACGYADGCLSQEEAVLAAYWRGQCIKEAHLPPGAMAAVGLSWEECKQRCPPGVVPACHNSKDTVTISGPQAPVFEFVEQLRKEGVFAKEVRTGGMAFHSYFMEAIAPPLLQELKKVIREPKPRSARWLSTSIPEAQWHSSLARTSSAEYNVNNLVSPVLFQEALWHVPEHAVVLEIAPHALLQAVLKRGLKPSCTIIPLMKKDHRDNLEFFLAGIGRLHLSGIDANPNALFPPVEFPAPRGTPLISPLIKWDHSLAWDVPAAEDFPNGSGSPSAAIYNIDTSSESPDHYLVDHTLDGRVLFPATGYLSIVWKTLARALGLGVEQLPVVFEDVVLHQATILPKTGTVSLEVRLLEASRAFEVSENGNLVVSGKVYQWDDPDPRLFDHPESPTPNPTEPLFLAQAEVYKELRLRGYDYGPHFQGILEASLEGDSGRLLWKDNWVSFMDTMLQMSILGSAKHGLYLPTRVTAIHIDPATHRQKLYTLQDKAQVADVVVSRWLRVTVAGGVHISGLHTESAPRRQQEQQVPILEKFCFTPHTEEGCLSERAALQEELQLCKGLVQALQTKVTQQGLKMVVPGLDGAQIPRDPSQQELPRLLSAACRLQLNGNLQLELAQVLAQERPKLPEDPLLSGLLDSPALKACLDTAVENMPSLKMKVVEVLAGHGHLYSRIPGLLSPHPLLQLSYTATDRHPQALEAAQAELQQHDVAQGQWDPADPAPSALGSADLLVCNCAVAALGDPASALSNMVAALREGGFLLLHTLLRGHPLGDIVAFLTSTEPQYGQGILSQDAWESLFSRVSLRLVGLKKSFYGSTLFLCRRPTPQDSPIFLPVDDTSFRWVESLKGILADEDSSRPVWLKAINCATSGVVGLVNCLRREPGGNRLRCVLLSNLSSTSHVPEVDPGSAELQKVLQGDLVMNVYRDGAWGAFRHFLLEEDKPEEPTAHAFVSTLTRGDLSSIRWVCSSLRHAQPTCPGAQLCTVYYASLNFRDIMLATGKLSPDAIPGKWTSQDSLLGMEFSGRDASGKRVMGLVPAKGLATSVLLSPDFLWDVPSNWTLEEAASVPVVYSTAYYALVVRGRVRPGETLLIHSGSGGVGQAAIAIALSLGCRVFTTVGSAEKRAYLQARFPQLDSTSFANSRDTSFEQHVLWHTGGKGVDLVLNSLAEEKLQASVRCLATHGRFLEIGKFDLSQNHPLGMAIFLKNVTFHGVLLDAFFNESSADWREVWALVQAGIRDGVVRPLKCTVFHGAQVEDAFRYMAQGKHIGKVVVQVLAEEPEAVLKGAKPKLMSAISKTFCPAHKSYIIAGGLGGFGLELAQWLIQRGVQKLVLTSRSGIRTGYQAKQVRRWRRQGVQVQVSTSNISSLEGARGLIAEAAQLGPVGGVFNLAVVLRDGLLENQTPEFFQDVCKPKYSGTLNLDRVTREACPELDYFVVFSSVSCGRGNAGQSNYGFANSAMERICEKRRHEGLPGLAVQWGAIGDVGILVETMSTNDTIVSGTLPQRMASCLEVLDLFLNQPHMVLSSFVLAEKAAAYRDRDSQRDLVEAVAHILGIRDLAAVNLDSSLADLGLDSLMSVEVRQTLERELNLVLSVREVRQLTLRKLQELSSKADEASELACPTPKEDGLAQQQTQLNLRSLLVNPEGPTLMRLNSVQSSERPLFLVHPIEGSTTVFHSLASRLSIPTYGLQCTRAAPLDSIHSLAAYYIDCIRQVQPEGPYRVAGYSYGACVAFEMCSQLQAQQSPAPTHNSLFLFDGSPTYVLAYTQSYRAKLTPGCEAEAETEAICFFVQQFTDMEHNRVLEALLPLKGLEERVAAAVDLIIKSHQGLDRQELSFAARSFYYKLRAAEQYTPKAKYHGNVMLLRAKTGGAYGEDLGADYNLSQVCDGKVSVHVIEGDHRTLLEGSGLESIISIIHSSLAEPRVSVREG", "experiment": "inhibition of human FAS-TE enzyme activity – biochemical, kinetic fluorescence intensity, dose response (AID 624326);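 further: rate of fluorescence rise from hydrolysis of a fluorogenic O-methyl fluorescein ester substrate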", "type": "functional"}, "[3]": {"biological_target": "T3, Neuropeptide Y receptor type 1 (Homo sapiens, UniProt P25929)", "T3 sequence (P25929 whole entry)": "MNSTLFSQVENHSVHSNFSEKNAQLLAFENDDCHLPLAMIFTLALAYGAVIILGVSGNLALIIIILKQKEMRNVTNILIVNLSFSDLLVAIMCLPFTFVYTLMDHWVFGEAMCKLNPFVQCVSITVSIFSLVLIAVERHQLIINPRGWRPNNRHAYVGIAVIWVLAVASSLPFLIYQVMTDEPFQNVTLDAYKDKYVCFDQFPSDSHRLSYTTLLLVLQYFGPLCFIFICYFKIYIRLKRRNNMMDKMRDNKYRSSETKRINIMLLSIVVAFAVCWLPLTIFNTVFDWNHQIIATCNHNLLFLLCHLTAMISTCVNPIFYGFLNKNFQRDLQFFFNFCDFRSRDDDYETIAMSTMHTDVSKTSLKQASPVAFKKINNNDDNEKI", "experiment": "Fluorescence-based counterscreen for agonists of NPY-Y2: cell-based high-throughput dose response assay for agonists of NPY-Y1.", "type": "functional"}, "[4]": {"tested_on": "Streptococcus sp. 'group A'", "experiment": "Streptococcus pyogenes SK(-)GAS viability under kanamycin – luminescence, BacTiterGlo, confirmation, counter-screen for streptokinase expression inhibitor project, dose response (AID 1900)", "type": "functional, organism-based"}, "Streptokinase A": {"biological_target": "T4, Streptokinase A (Streptococcus pyogenes serotype M1, UniProt P10520)", "T4 sequence (P10520 whole entry)": "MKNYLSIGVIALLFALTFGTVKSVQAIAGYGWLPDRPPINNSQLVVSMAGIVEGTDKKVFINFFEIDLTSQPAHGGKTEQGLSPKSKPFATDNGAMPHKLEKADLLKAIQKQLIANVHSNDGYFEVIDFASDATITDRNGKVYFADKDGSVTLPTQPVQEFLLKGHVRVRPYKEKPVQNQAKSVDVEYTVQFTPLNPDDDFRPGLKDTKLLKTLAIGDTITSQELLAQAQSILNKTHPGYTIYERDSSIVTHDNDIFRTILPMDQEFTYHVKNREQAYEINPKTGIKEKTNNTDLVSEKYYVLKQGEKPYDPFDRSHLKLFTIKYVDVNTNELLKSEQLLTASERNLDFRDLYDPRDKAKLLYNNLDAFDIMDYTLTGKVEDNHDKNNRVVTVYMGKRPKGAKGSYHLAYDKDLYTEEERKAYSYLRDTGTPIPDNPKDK", "experiment": "viability-normalized secreted streptokinase activity reduction – plasminogen activation absorbance, OD405, dose response (AID 1914);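 further: secreted streptokinase activity via plasminogen activation per viability signal from cell pellet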", "type": "functional, Streptococcus pyogenes M1 GAS"}, "HEK293": {"tested_on": "HEK293", "experiment": "Fluorescence-based counterscreen for potentiators or agonists of NPY-Y2: cell-based high-throughput dose response assay to identify inhibitors of cyclic nucleotide gated ion channel (CNGC) activity. In this assay, the parental HEK293 cell line transfected with a cyclic-nucleotide gated ion channel (CNGC)-based cAMP sensor is used to measure inhibition of isoproterenol-induced CNGC activity by test compound.", "type": "functional", "settings": "Homo sapiens"}, "Paired box protein Pax-8": {"biological_target": "Paired box protein Pax-8 (Homo sapiens, UniProt Q06710)", "experiment": "PAX8 transcriptional activity inhibition in RMG-I – RMG-I cells, luciferase, cherry-pick, dose response (AID 687027);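 further: luciferase reporter driven by Pax8 target thyroperoxidase promoter measured by SteadyGlo luminescence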", "type": "functional, cell-based"}, "Streptococcus": {"tested_on": "Streptococcus", "experiment": "GAS UMAA2166 growth inhibition – luminescence, BacTiterGlo, counter-screen for streptokinase expression inhibitor project, dose response (AID 1915)", "type": "functional, organism-based"}, "Fatty acid synthase [5]": {"biological_target": "T2, Fatty acid synthase", "experiment": "inhibition of human FAS-TE enzyme activity – biochemical, endpoint fluorescence intensity, uHTS hits, dose response (AID 624327);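 further: fluorescence from hydrolysis of an O-methyl fluorescein acyl ester substrate by the enzyme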", "type": "functional"}, "[6]": {"experiment": "antiviral protection against BTV-induced cell death – arbovirus, BSR cells, confirmation (AID 1250);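 further: protection from viral cytopathic effect measured as cell viability by ATP luminescence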", "type": "functional"}, "Vero": {"tested_on": "Vero", "experiment": "viability of Vero cells under compound – cytotoxicity control for flavivirus capping enzyme inhibitors (AID 588742)", "type": "functional", "settings": "Chlorocebus sabaeus"}, "[7]": {"biological_target": "Mothers against decapentaplegic homolog 3 (Homo sapiens, UniProt P84022)", "sequence (P84022 whole entry)": "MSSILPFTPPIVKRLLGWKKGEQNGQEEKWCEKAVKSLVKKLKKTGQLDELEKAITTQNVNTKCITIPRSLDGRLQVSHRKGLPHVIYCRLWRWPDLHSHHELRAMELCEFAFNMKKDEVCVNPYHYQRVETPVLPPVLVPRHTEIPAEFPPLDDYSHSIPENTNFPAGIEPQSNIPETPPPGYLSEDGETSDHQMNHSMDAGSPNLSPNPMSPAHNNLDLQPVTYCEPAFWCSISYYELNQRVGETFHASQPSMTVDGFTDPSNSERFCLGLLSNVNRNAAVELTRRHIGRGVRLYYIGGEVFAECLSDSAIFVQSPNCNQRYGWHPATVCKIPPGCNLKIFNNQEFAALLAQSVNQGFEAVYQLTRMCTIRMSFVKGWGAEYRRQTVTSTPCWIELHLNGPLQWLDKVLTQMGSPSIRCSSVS", "experiment": "blockers of Smad3 complex formation in lysate – cell lysate, secondary confirmation, chemiluminescent ELISA, HEK293 lysate, dose response (AID 1058)", "type": "functional"}, "[8]": {"biological_target": "T3, Neuropeptide Y receptor type 1", "type": "functional"}, "[9]": {"biological_target": "T1, Neuropeptide Y receptor type 2", "type": "functional, cell-based"}, "[10]": {"biological_target": "Epstein-Barr nuclear antigen 1 (Epstein-Barr virus (strain B95-8) (HHV-4) (Human herpesvirus 4), UniProt P03211)", "experiment": "inhibition of EBV nuclear antigen 1 DNA binding – biochemical, fluorescence polarization, 1536-well, dose response (AID 2381);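 further: fluorescence polarization of a Cy5 DNA probe bound by EBNA-1 protein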", "set-up": "species or system human gammaherpesvirus 4"}, "[11]": {"biological_target": "Lytic switch protein BZLF1 (Epstein-Barr virus (strain B95-8) (HHV-4) (Human herpesvirus 4), UniProt P03206)", "sequence (P03206 whole entry)": "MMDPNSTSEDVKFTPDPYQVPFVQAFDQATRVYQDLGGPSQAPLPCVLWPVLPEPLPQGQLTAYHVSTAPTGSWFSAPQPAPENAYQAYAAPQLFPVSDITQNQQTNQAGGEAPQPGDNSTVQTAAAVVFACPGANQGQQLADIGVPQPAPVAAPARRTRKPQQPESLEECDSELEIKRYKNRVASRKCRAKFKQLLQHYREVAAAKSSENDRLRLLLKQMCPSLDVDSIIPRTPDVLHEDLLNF", "experiment": "inhibition of BZLF1 ZTA DNA binding – biochemical, fluorescence polarization, Epstein-Barr virus, 1536-well, counter-screen for EBNA-1 inhibitor project, dose response (AID 2377);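 further: fluorescence polarization of Cy5-labelled ZRE DNA probe bound by purified Zta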", "set-up": "species or system human gammaherpesvirus 4"}, "[12]": {"biological_target": "T5, Eukaryotic translation initiation factor 2-alpha kinase 3 (Homo sapiens, UniProt Q9NZJ5)", "T5 sequence (Q9NZJ5 whole entry)": "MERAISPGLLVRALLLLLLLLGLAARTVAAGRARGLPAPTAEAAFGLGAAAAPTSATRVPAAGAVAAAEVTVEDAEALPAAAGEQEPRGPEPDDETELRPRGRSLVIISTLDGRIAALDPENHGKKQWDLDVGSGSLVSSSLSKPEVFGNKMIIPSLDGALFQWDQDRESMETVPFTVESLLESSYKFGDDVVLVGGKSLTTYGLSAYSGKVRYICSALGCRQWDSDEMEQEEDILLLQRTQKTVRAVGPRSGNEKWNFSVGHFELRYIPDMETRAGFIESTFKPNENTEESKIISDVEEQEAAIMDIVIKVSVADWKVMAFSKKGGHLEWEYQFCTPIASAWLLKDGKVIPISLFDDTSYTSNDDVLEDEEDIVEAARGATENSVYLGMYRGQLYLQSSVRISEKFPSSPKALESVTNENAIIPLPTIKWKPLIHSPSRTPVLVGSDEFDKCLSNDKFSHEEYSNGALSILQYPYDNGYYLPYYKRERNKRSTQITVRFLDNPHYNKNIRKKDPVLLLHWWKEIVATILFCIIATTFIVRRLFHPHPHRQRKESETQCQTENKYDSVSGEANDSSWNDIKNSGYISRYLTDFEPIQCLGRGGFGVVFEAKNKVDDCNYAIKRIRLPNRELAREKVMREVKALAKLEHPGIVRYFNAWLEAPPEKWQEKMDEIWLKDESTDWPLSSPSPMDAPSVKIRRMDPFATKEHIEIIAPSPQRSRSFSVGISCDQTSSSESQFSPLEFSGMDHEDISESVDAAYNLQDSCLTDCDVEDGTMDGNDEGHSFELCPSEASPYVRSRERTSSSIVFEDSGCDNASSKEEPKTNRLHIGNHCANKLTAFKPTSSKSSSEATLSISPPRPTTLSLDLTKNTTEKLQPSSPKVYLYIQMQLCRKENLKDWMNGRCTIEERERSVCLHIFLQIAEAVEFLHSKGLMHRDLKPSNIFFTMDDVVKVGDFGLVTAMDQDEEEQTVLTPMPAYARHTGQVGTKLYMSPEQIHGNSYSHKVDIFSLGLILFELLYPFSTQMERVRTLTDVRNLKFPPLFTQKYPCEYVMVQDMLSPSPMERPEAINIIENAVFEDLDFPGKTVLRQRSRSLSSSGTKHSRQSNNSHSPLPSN", "experiment": "Dose response cell-based high-throughput screening assay to measure PERK inhibition. [Related pubchem assays: 1416 ]", "type": "functional"}, "[13]": {"biological_target": "T5, Eukaryotic translation initiation factor 2-alpha kinase 3", "experiment": "Counterscreen assay for PERK inhibitors: Dose response cell-based high throughput screening assay to measure inhibition of PERK at 6 hours. [Related pubchem assays: 1522, 1416 ]", "type": "functional"}, "Cytochrome P450 2C9": {"biological_target": "Cytochrome P450 2C9 (Homo sapiens, UniProt P11712)", "settings": "read-out: Potency"}, "Cytochrome P450 2C19": {"biological_target": "Cytochrome P450 2C19 (Homo sapiens, UniProt P33261)", "experiment": "Cytochrome panel assay with activity outcomes. Panel member name: p450-cyp2c19 Compounds with AC50 equal or less than 10 uM are considered active", "type": "functional"}, "[14]": {"biological_target": "T6, Zinc finger protein mex-5 (Caenorhabditis elegans, UniProt Q9XUB2)", "T6 sequence (Q9XUB2 whole entry)": "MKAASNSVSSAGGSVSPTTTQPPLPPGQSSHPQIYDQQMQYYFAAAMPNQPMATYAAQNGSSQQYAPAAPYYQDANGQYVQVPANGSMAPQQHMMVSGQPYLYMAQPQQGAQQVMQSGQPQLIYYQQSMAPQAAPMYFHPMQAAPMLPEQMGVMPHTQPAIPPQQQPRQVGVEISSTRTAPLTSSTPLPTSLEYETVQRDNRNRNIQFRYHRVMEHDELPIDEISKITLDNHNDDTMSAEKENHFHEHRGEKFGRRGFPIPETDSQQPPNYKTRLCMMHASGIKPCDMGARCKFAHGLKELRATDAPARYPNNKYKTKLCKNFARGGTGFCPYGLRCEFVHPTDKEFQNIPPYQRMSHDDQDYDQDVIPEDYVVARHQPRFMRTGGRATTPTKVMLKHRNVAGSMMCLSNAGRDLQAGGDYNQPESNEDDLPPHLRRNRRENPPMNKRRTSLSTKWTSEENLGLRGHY", "experiment": "potency of MEX-5 RNA-binding blockers – biochemical, C. elegans, fluorescence polarization, dose response (AID 1960)"}, "[15]": {"biological_target": "T7, RNA-binding protein pos-1 (Caenorhabditis elegans, UniProt G5EF15)", "T7 sequence (G5EF15 whole entry)": "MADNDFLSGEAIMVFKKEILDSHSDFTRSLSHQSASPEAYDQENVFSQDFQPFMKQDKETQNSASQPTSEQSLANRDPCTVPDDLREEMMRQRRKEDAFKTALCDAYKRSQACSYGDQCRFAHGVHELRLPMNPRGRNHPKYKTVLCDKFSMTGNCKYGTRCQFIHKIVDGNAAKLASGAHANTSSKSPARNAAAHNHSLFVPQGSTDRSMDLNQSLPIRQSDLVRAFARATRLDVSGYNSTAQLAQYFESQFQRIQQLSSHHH", "experiment": "disruptors of C. elegans POS-1 RNA interaction – biochemical, fluorescence polarization, dose response (AID 1964);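 further: purified POS-1 fused to maltose binding protein made in E. coli; potency of compounds blocking POS-1 binding to fluorescent RNA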"}, "Cytochrome P450 2D6": {"biological_target": "Cytochrome P450 2D6 (Homo sapiens, UniProt P10635)", "sequence (P10635 whole entry)": "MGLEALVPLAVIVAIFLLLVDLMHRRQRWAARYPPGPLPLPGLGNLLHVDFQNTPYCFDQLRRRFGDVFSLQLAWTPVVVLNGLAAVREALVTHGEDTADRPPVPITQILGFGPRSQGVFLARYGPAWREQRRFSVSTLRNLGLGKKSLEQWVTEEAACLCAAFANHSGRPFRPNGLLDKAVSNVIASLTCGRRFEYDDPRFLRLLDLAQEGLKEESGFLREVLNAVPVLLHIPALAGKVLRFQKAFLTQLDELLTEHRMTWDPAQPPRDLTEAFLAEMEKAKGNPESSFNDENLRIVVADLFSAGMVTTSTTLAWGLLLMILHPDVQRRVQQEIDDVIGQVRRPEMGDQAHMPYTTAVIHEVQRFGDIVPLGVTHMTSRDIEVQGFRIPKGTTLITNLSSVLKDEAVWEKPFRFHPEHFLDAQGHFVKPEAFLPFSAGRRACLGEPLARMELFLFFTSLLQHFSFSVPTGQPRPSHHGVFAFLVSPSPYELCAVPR", "experiment": "qHTS Assay for Inhibitors and Substrates of Cytochrome P450 2D6. [Related pubchem assays: 410 ]", "type": "ADME", "settings": "human; read-out: Potency"}},
  "note": "Calls of active or inactive are those of the source.",
  "data": [
    {"smiles": "C=CCN1C(=O)/C(=C/c2ccc(OC(C)=O)c(OCC)c2[N+](=O)[O-])SC1=S", "values": [
      {"measurement": "EC50", "setting": "[1]", "result": "18.4 µM (not active)"},
      {"measurement": "IC50", "setting": "Fatty acid synthase [2]", "result": "2.87 µM (active)"},
      {"measurement": "EC50", "setting": "[3]", "result": "14.8 µM (not active)"},
      {"measurement": "EC50", "setting": "[4]", "result": "1.32 µM (active)"},
      {"measurement": "EC50", "setting": "Streptokinase A", "result": "> 150 µM (not active)"},
      {"measurement": "EC50", "setting": "HEK293", "result": "> 11.8 µM (not active)"},
      {"measurement": "AC50", "setting": "Paired box protein Pax-8", "result": "5.91 µM (active)"},
      {"measurement": "EC50", "setting": "Streptococcus", "result": "2.63 µM (active)"},
      {"measurement": "IC50", "setting": "Fatty acid synthase [5]", "result": "5.92 µM (active)"}
    ]},
    {"smiles": "CCOc1ccc(CNc2ccc3c(c2)nc(C)n3C)cc1", "values": [
      {"measurement": "IC50", "setting": "[6]", "result": "26.6 µM (active)"},
      {"measurement": "CC50", "setting": "Vero", "result": "> 40 µM (active)"}
    ]},
    {"smiles": "COc1ccc(C(c2cc3c(cc2O)OCO3)N2CCN(C(c3ccc(OC)cc3)c3cc4c(cc3O)OCO4)CC2)cc1", "note": "(centres undefined)", "values": [
      {"measurement": "IC50", "setting": "[7]", "result": "36.1 µM (not active)"}
    ]},
    {"smiles": "N=c1n(Cc2ccc(Cl)cc2)c2ccccc2n1CC(O)c1ccco1", "note": "(centres undefined)", "values": [
      {"measurement": "IC50", "setting": "[8]", "result": "> 35 µM (not active)"},
      {"measurement": "IC50", "setting": "[9]", "result": "> 35 µM (not active)"}
    ]},
    {"smiles": "N#C/C(=C\\c1cn(Cc2ccccc2F)c2ccccc12)C(=O)NCc1ccco1", "values": [
      {"measurement": "IC50", "setting": "[10]", "result": "6.53 µM (active)"},
      {"measurement": "IC50", "setting": "[11]", "result": "> 111 µM (not active)"}
    ]},
    {"smiles": "Cc1cccc(/C=N/n2c(S)nnc2-c2ccco2)c1", "values": [
      {"measurement": "EC50", "setting": "[12]", "result": "> 55.7 µM (not active)"},
      {"measurement": "EC50", "setting": "[13]", "result": "> 55.7 µM (not active)"}
    ]},
    {"smiles": "C=CC1=C(C)c2cc3[nH]c(cc4nc(cc5[nH]c(cc1n2)c(C)c5CCC(=O)O)C(CCC(=O)O)=C4C)c(C)c3C=C", "note": "[PROTOPORPHYRIN]", "values": [
      {"measurement": "AC50", "setting": "Cytochrome P450 2C9", "result": "6.31 µM (inconclusive)"},
      {"measurement": "AC50", "setting": "Cytochrome P450 2C19", "result": "inconclusive"},
      {"measurement": "EC50", "setting": "[14]", "result": "8.89 µM (active)"},
      {"measurement": "EC50", "setting": "[15]", "result": "9.95 µM (active)"},
      {"measurement": "CC50", "setting": "Vero", "result": "19.7 µM (active)"},
      {"measurement": "AC50", "setting": "Cytochrome P450 2D6", "result": "25.1 µM (inconclusive)"}
    ]}
  ]
}
